Among the data in patent publication US20120214822A1 (ASTRAZENECA AB, priority 2007, published 2012) are pIC50 values, retold here.

The target of this assay is human active recombinant p38α-6His tagged (Homo sapiens, UniProt Q16539). The experiment in a line: P38 Alpha Enzyme Assay (AlphaScreen, biotinylated-ATF2 substrate).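 Also: 0.5 nM final p38α, reaction started with ATP and run 45 min at 37 °C, phospho-ATF2 read by antibody-based AlphaScreen, background wells quenched with EDTA before ATP.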 The class given is biochemical. The conditions noted are these: p38 alpha enzyme inhibition; means of replicate determinations; 4 h pre-incubation at 37° C.; SD of assay 0.2-0.3 log units. (In Alpha technology, singlet oxygen from a donor bead excites a nearby acceptor bead.)
Sequence of human active recombinant p38α-6His tagged (Q16539 whole entry): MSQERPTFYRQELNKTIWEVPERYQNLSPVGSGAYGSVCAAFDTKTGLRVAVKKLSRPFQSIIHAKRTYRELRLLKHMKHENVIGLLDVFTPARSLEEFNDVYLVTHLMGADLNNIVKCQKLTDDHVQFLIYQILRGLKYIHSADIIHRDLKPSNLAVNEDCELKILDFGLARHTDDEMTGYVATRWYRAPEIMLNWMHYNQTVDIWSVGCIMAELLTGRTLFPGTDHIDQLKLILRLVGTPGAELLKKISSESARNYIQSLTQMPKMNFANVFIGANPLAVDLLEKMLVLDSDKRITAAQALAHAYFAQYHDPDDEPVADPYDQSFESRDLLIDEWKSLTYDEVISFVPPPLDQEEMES
As to `Cc1ccccc1CNc1nccn(-c2cc(C(=O)NC3CC3)ccc2C)c1=O` [Example 39, N-Cyclopropyl-4-methyl-3-[3-[[(2-methylphenyl)methyl]amino]-2-oxo-1(2H)-pyrazinyl]-benzamide], the pIC50 came out at 7.5.

As to `Cc1ccc(C(=O)NC2CC2)cc1-n1ccnc(NCc2cccc(CN3CCN(C)CC3)c2)c1=O` [Example 40, N-Cyclopropyl-4-methyl-3-[3-[[[3-[(4-methyl-1-piperazinyl)methyl]phenyl]methyl]amino]-2-oxo-1(2H)-pyrazinyl]-benzamide], the pIC50 is reported as 6.7.

On to `Cc1ccc(C(=O)NC2CC2)cc1-n1ccnc(NCc2ccccc2CN2CCN(C)CC2)c1=O` [Example 41, N-Cyclopropyl-4-methyl-3-[3-[[[2-[(4-methyl-1-piperazinyl)methyl]phenyl]methyl]amino]-2-oxo-1(2H)-pyrazinyl]-benzamide], for which the pIC50 was determined as 7.

In the case of `Cc1ccc(CNc2nccn(-c3cc(C(=O)NC4CC4)ccc3C)c2=O)cc1` [Example 42, N-Cyclopropyl-4-methyl-3-[3-[[(4-methylphenyl)methyl]amino]-2-oxo-1(2H)-pyrazinyl]-benzamide], the pIC50 is 6.4.

Take `Cc1ccc(C(=O)NC2CC2)cc1-n1ccnc(NCc2ccccc2-c2ccccc2)c1=O` [Example 44, 3-[3-[([1,1′-Biphenyl]-2-ylmethyl)amino]-2-oxo-1(2H)-pyrazinyl]-N-cyclopropyl-4-methyl-benzamide]: the pIC50 is listed as 7.6.

`Cc1ccc(C(=O)NC2CC2)cc1-n1ccnc(NCc2ccc(Oc3ccccc3)cc2)c1=O` [Example 45, N-Cyclopropyl-4-methyl-3-[2-oxo-3-[[(4-phenoxyphenyl)methyl]amino]-1(2H)-pyrazinyl]-benzamide]: the pIC50 was found to be 6.5.

`Cc1cccc(CNc2nccn(-c3cc(C(=O)NC4CC4)ccc3C)c2=O)c1` [Example 46, N-Cyclopropyl-4-methyl-3-[3-[[(3-methylphenyl)methyl]amino]-2-oxo-1(2H)-pyrazinyl]-benzamide]: the pIC50 is 8.

On to `Cc1ccc(C(=O)NC2CC2)cc1-n1ccnc(N[C@H]2C[C@@H]2c2ccccc2)c1=O` [Example 47, N-Cyclopropyl-4-methyl-3-[2-oxo-3-[[(1S,2R)-2-phenylcyclopropyl]amino]-1(2H)-pyrazinyl]-benzamide], for which the pIC50 was found to be 7.2.

`Cc1ccc(C(=O)NC2CC2)cc1-n1ccnc(NCC(C)(C)C)c1=O` [Example 49, N-Cyclopropyl-3-[3-[(2,2-dimethylpropyl)amino]-2-oxo-1(2H)-pyrazinyl]-4-methyl-benzamide]: the pIC50 came to 6.9.

As to `Cc1ccc(C(=O)NC2CC2)cc1-n1ccnc(N2CCNC(c3ccccc3)C2)c1=O` (centres unmarked) [Example 53, N-Cyclopropyl-4-methyl-3-[2-oxo-3-(3-phenyl-1-piperazinyl)-1(2H)-pyrazinyl]-benzamide], the pIC50 is listed as 7.4.

On to `Cc1ccc(C(=O)NC2CC2)cc1-n1ccnc(N2CCC(c3ccccc3)C2)c1=O` (centres unmarked) [Example 54, N-Cyclopropyl-4-methyl-3-[2-oxo-3-(3-phenyl-1-pyrrolidinyl)-1(2H)-pyrazinyl]-benzamide], for which the pIC50 was 6.5.

As for `Cc1ccc(C(=O)NC2CC2)cc1-n1ccnc(NC[C@H](O)c2ccccc2)c1=O` [Example 55, N-Cyclopropyl-3-[3-[[(2R)-2-hydroxy-2-phenylethyl]amino]-2-oxo-1(2H)-pyrazinyl]-4-methyl-benzamide], the pIC50 worked out at 6.5.

As for `Cc1ccc(C(=O)NC2CC2)cc1-n1ccnc(NC[C@@H](O)c2ccccc2)c1=O` [Example 56, N-Cyclopropyl-3-[3-[[(2S)-2-hydroxy-2-phenylethyl]amino]-2-oxo-1(2H)-pyrazinyl]-4-methyl-benzamide], the pIC50 is recorded as 6.4.

With `Cc1ccc(C(=O)NC2CC2)cc1-n1ccnc(NC[C@H](C)c2ccccc2)c1=O` [Example 57, N-Cyclopropyl-4-methyl-3-[2-oxo-3-[[(2R)-2-phenylpropyl]amino]-1(2H)-pyrazinyl]-benzamide], the pIC50 was 7.1.

In general, pIC50 refers to the negative decadic logarithm of the IC50, by convention in mol/L.
